From the NIST ThermoML archive (doi:10.1016/j.fluid.2009.02.007)

Assay: osmotic coefficient (dimensionless); mn = molality of the nth substance listed, in mol/kg
Details: 101 kPa, Liquid, Vapor pressure osmometry

CCCCn1cc[n+](C)c1.COS(=O)(=O)[O-] [1-butyl-3-methylimidazolium methyl sulfate] + O
osmotic coefficient
Details	298.15 K	308.15 K	318.15 K	328.15 K
m1 = 0.0132	0.923	0.937	0.968	0.987
m1 = 0.0225	0.895	0.921	0.958	0.977
m1 = 0.0328	0.884	0.897	0.94	0.966
m1 = 0.0434	0.863	0.885	0.896	0.959
m1 = 0.0634	0.837	0.872	0.882	0.896
m1 = 0.078	0.821	0.836	0.877	0.887
m1 = 0.1205	0.809	0.813	0.839	0.874
m1 = 0.157	0.791	0.809	0.839	0.858
m1 = 0.1944	0.78	0.802	0.814	0.857
m1 = 0.2801	0.767	0.779	0.802	0.84
m1 = 0.3552	0.741	0.758	0.775	0.81
m1 = 0.4687	0.721	0.749	0.762	0.8
m1 = 0.7057	0.71	0.74	0.756	0.786
m1 = 0.9552	0.698	0.716	0.732	0.76
m1 = 1.44	0.692	0.708	0.73	0.752
m1 = 2.177	0.693	0.7	0.726	0.743

CCCCn1cc[n+](C)c1.F[B-](F)(F)F [1-butyl-3-methylimidazolium tetrafluoroborate] + O
osmotic coefficient
Details	298.15 K	308.15 K	318.15 K	328.15 K
m1 = 0.012	1.023	1.009	1.006	0.994
m1 = 0.0223	0.994	0.974	0.986	0.978
m1 = 0.0369	0.987	0.959	0.955	0.965
m1 = 0.045	0.956	0.956	0.96	0.959
m1 = 0.0652	0.952	0.926	0.937	0.92
m1 = 0.0855	0.862	0.879	0.892	0.9
m1 = 0.1058	0.854	0.872	0.887	0.883
m1 = 0.1629	0.825	0.823	0.826	0.839
m1 = 0.2108	0.804	0.787	0.802	0.797
m1 = 0.2695	0.749	0.766	0.766	0.772
m1 = 0.3284	0.699	0.708	0.748	0.761
m1 = 0.4307	0.677	0.685	0.693	0.726
m1 = 0.533	0.648	0.666	0.673	0.685
m1 = 0.6375	0.619	0.622	0.634	0.647
m1 = 0.7233	0.575	0.587	0.61	0.632
m1 = 0.9322	0.523	0.545	0.564	0.589
m1 = 1.292	0.462	0.495	0.508	0.517
m1 = 2.066	0.392	0.396	0.412	0.415

CCOS(=O)(=O)[O-].CCn1cc[n+](C)c1 [1-ethyl-3-methylimidazolium ethyl sulfate] + O
osmotic coefficient
Details	298.15 K	308.15 K	318.15 K	328.15 K
m1 = 0.0086	0.973	0.981	1.019	1.018
m1 = 0.0185	0.957	0.943	0.972	0.975
m1 = 0.0284	0.937	0.921	0.934	0.955
m1 = 0.0376	0.921	0.917	0.93	0.936
m1 = 0.057	0.871	0.862	0.868	0.886
m1 = 0.0749	0.852	0.862	0.859	0.858
m1 = 0.0938	0.83	0.838	0.845	0.85
m1 = 0.1269	0.815	0.817	0.831	0.842
m1 = 0.1704	0.782	0.797	0.813	0.815
m1 = 0.2087	0.774	0.779	0.797	0.815
m1 = 0.2648	0.754	0.764	0.797	0.8
m1 = 0.3276	0.751	0.766	0.793	0.796
m1 = 0.4235	0.736	0.755	0.776	0.787
m1 = 0.5106	0.724	0.745	0.772	0.781
m1 = 0.6979	0.712	0.727	0.742	0.755
m1 = 0.8919	0.706	0.721	0.73	0.747
m1 = 1.12	0.697	0.711	0.717	0.729
m1 = 1.606	0.696	0.707	0.715	0.719
m1 = 1.889	0.694	0.707	0.717	0.726
m1 = 2.763	0.733	0.747	0.759	0.766
